Earlier results, collected in patent US20100247649A1, “PHARMACEUTICAL FORMULATIONS COMPRISING TELMISARTAN AND HYDROCHLOROTHIAZIDE” (DR. REDDY'S LABORATORIES LTD., priority 2007, published 2010).

Aqueous solubility in the physiological pH range of the gastrointestinal tract (between pH 1 and 7) | Solubility in hydrochloric acid (hydrochloric acid) | Solubility in the pH range of 3 to 9 (pH range of 3 to 9) | Solubility in strong acids (strong acids (except hydrochloric acid)) | Solubility in strong bases (strong bases) | Solubility in water (water) | Stability in alkaline conditions (alkaline conditions) | Compound
very poor | insoluble | practically insoluble | sparingly soluble | soluble | practically insoluble |  | CCCc1nc2c(C)cc(-c3nc4ccccc4n3C)cc2n1Cc1ccc(-c2ccccc2C(=O)O)cc1 [Telmisartan, 4′-[(1,4′-dimethyl-2′-propyl[2,6′-bi-1H-benzimidazol]-1′-yl)methyl]-[1,1′-biphenyl]-2-carboxylic acid]
 |  |  |  |  |  | degrades | NS(=O)(=O)c1cc2c(cc1Cl)NCNS2(=O)=O [Hydrochlorothiazide, 6-chloro-3,4-dihydro-2H-1,2,4-benzothiadiazine-7-sulfonamide 1,1-dioxide]
